Experimental data taken from PubChem BioAssay AID1963831 (Molecular Pharmacology Branch, DTP, NCI, 2024).
pIC50: −log10 of the molar value.

System: 889142-216-R-J1-PDC complex spheroid viability
Assay: Anticancer human tumor 889142-216-R-J1-PDC patient-derived bladder carcinoma cell line growth inhibition [POLQ]
Conditions: for pIC50: curve of first compound; for viability, T/C: stronger effect = lower value; active = viability on the fitted dose curve at most 10% of control; inactive = the rest
In short: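 Growth inhibition in 3D: complex spheroids (tumor PDC, HUVEC, MSC) treated with POLQ inhibitor combinations; where Cmax unknown, highest tested concentration 10 microM, except SN-38 at 1 microM.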

[1] = second compound 0.0316 µM, first compound 0.0316 µM
[2] = second compound 0.0316 µM, first compound 0.1 µM
[3] = second compound 0.0316 µM, first compound 0.316 µM
[4] = second compound 0.0316 µM, first compound 1 µM
[5] = second compound 0.0316 µM, first compound 3.16 µM
[6] = second compound 0.0316 µM, first compound 10 µM
[7] = second compound 0.1 µM, first compound 0.0316 µM
[8] = second compound 0.1 µM, first compound 0.1 µM
[9] = second compound 0.1 µM, first compound 0.316 µM
[10] = second compound 0.1 µM, first compound 1 µM
[11] = second compound 0.1 µM, first compound 3.16 µM
[12] = second compound 0.1 µM, first compound 10 µM
[13] = second compound 0.316 µM, first compound 0.0316 µM
[14] = second compound 0.316 µM, first compound 0.1 µM
[15] = second compound 0.316 µM, first compound 0.316 µM
[16] = second compound 0.316 µM, first compound 1 µM
[17] = second compound 0.316 µM, first compound 3.16 µM
[18] = second compound 0.316 µM, first compound 10 µM
[19] = second compound 1 µM, first compound 0.0316 µM
[20] = second compound 1 µM, first compound 0.1 µM
[21] = second compound 1 µM, first compound 0.316 µM
[22] = second compound 1 µM, first compound 1 µM
[23] = second compound 1 µM, first compound 3.16 µM
[24] = second compound 1 µM, first compound 10 µM
[25] = second compound 3.16 µM, first compound 0.0316 µM
[26] = second compound 3.16 µM, first compound 0.1 µM
[27] = second compound 3.16 µM, first compound 0.316 µM
[28] = second compound 3.16 µM, first compound 1 µM
[29] = second compound 3.16 µM, first compound 3.16 µM
[30] = second compound 3.16 µM, first compound 10 µM
[31] = second compound 10 µM, first compound 0.0316 µM
[32] = second compound 10 µM, first compound 0.1 µM
[33] = second compound 10 µM, first compound 0.316 µM
[34] = second compound 10 µM, first compound 1 µM
[35] = second compound 10 µM, first compound 3.16 µM
[36] = second compound 10 µM, first compound 10 µM
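Note: spheroids exposed to compounds for seven days.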
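Throughout, for viability, T/C: 100% = DMSO vehicle control viability.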

C#Cc1c(F)ccc2cc(O)cc(-c3ncc4c(N5CC6CCC(C5)N6)nc(OCC56CCCN5CC(F)C6)nc4c3F)c12 (stereo unspecified) + Nc1ccc(C#CCN(C(=O)Cc2ncc(C(F)(F)F)cc2C(F)(F)F)c2ccc(F)cc2)nn1
< 5.00: pIC50 (second compound 0.0316 µM) | pIC50 (second compound 0.316 µM) | pIC50 (second compound 1 µM) | pIC50 (second compound 3.16 µM)
5.12: pIC50 (second compound 0.1 µM) | pIC50 (second compound 10 µM)
inactive: viability, T/C [1] 101% | viability, T/C [2] 102% | viability, T/C [3] 75% | viability, T/C [4] 74.6% | viability, T/C [5] 84.8% | viability, T/C [6] 43.9% | viability, T/C [7] 103% | viability, T/C [8] 119% | viability, T/C [9] 85.3% | viability, T/C [10] 79% | viability, T/C [11] 86.6% | viability, T/C [12] 38.9% | viability, T/C [13] 115% | viability, T/C [14] 99.4% | viability, T/C [15] 73.5% | viability, T/C [16] 116% | viability, T/C [17] 69.8% | viability, T/C [18] 49.7% | viability, T/C [19] 115% | viability, T/C [20] 102% | viability, T/C [21] 95.8% | viability, T/C [22] 76.7% | viability, T/C [23] 65.3% | viability, T/C [24] 52.5% | viability, T/C [25] 94% | viability, T/C [26] 98.1% | viability, T/C [27] 90.3% | viability, T/C [28] 131% | viability, T/C [29] 70.3% | viability, T/C [30] 63.8% | viability, T/C [31] 120% | viability, T/C [32] 81.6% | viability, T/C [33] 108% | viability, T/C [34] 75.5% | viability, T/C [35] 90.5% | viability, T/C [36] 38.8%

CC(C)n1c(=O)n(C)c2cnc3cc(F)c(-c4ccc(OCCCN5CCCCC5)nc4)cc3c21 + Nc1ccc(C#CCN(C(=O)Cc2ncc(C(F)(F)F)cc2C(F)(F)F)c2ccc(F)cc2)nn1
inactive: viability, T/C [1] 96.5% | viability, T/C [2] 113% | viability, T/C [3] 119% | viability, T/C [4] 79.2% | viability, T/C [5] 65.5% | viability, T/C [6] 95.2% | viability, T/C [7] 122% | viability, T/C [8] 89.3% | viability, T/C [9] 70.7% | viability, T/C [10] 84% | viability, T/C [11] 62% | viability, T/C [12] 76.1% | viability, T/C [13] 95.8% | viability, T/C [14] 85.1% | viability, T/C [15] 79.9% | viability, T/C [16] 80.7% | viability, T/C [17] 56.4% | viability, T/C [18] 95.8% | viability, T/C [19] 91.4% | viability, T/C [20] 80.3% | viability, T/C [21] 104% | viability, T/C [22] 88.7% | viability, T/C [23] 57.3% | viability, T/C [24] 97.8% | viability, T/C [25] 85.6% | viability, T/C [26] 72.8% | viability, T/C [27] 80.5% | viability, T/C [28] 88% | viability, T/C [29] 70.1% | viability, T/C [30] 113% | viability, T/C [31] 79.3% | viability, T/C [32] 97.8% | viability, T/C [33] 88.6% | viability, T/C [34] 79.7% | viability, T/C [35] 59.7% | viability, T/C [36] 97.2%
< 5.00: pIC50 (second compound 0.0316 µM) | pIC50 (second compound 0.1 µM) | pIC50 (second compound 0.316 µM) | pIC50 (second compound 1 µM) | pIC50 (second compound 3.16 µM) | pIC50 (second compound 10 µM)

CC1COCCN1c1cc(-c2ccnn2C)c2ccnc(-c3ccn[nH]3)c2n1 (stereo unspecified) + Nc1ccc(C#CCN(C(=O)Cc2ncc(C(F)(F)F)cc2C(F)(F)F)c2ccc(F)cc2)nn1
6.88: pIC50 (second compound 1 µM)
inactive: viability, T/C [1] 69.5% | viability, T/C [2] 60.1% | viability, T/C [3] 53.7% | viability, T/C [4] 41% | viability, T/C [5] 32.8% | viability, T/C [6] 32.7% | viability, T/C [7] 71.8% | viability, T/C [8] 60% | viability, T/C [9] 48.6% | viability, T/C [10] 44.5% | viability, T/C [11] 32.2% | viability, T/C [12] 24.6% | viability, T/C [13] 73.3% | viability, T/C [14] 54.6% | viability, T/C [15] 52.7% | viability, T/C [16] 42.7% | viability, T/C [17] 36.6% | viability, T/C [18] 25.5% | viability, T/C [19] 77.7% | viability, T/C [20] 45.8% | viability, T/C [21] 47.8% | viability, T/C [22] 39.3% | viability, T/C [23] 38.2% | viability, T/C [24] 27.3% | viability, T/C [25] 62.9% | viability, T/C [26] 57.2% | viability, T/C [27] 51% | viability, T/C [28] 43.2% | viability, T/C [29] 38.9% | viability, T/C [30] 32.3% | viability, T/C [31] 72.4% | viability, T/C [32] 68.2% | viability, T/C [33] 56.3% | viability, T/C [34] 42.3% | viability, T/C [35] 38.1% | viability, T/C [36] 31.7%
6.46: pIC50 (second compound 0.1 µM) | pIC50 (second compound 0.316 µM)
6.41: pIC50 (second compound 0.0316 µM)
6.25: pIC50 (second compound 10 µM)
6.45: pIC50 (second compound 3.16 µM)
